Measurements published in patent US9157109B2, “Biosensors utilizing ink jet-printed biomolecule compatible sol gel inks and uses thereof” (McMaster University, priority 2009, dated 2015).
Where two headings read alike, the source gives them in different places.

What was measured:
[1] = target: T1, β-Glucuronidase (GUS) (Escherichia coli, UniProt P05804); assay type: biochemical, E. coli
T1 construct: purchased Sigma-Aldrich type VII-A (catalogue number not given)
Protocol: For this, all of these substrates were dissolved separately with sodium phosphate buffer (75 mM, pH 8). […] 20 μL of GUS (final concentration of 1 U/mL) was then added into each well and incubated for 30 min to allow color development. The absorbance at 610, 400, and 380 nm was then measured using a TECAN M1000 plate reader. A digital camera was also used to take a photograph of the plate. […] (0-10 mM), and FeCl3 (2 mM) were entrapped on paper as described previous section (FIG. 13b). The sensor was then immersed into GUS solution (1 U/mL) and removed as soon as the Gus solution has reached the sensing region through FeCl3 zone followed by a certain incubation time (5, 30, and 60 min) at room temperature.
Experiments were conducted firstly in 96-well plate, in which GUS (final concentration of 1 U/mL) was entrapped in silica gel. […] (4 mM) and oxidizing agents (1 mM each) were then added to each well (designated for the individual oxidizing agent), and incubated for 30 min. The concentration gradient (0-30 mM) of FeCl3 was also observed in 96-well plate. The absorbance at 610 was measured using a TECAN M1000 plate reader for each experiment. A digital camera was also used to take a photograph of the plate. […] (3 mM) were entrapped on paper using biocompatible silica material in order to make the sensor strips, as described in the previous section. The performance of the sensor was then assayed by dipping it into the GUS solution (1 U/mL) to allow the enzyme solution to reach the sensing zone through FeCl3 zone via lateral flow. The color development times tested were 5, 30, and 60 min.

[2] = target: T2, acetylcholinesterase (AChE) (Electrophorus electricus, UniProt O42275); conditions: read-out: KM, literature value; cited from earlier work
[3] = target: T2, acetylcholinesterase (AChE); experiment: biochemical; assay type: biochemical; parameters: purchased Sigma-Aldrich; conditions: for apparent saturated inhibition concentration / LOD: IPA lateral flow sensor; for detection limit (LOD): S/N=3, IPA lateral flow sensor
Protocol: 20 μL of IPA (0˜5 mM) was then added into each well and incubated for 5 min to allow color development. The absorbance at 640 nm was then measured using a TECAN plate reader.
The performance of the sensor under optimized conditions can be assessed in two ways: (1) directly (normal lateral flow-based chromatography) without incubating the contaminated sample, and (2) inverted lateral flow-based chromatography with incubation of the sample. For the latter case, after incubation 5 min at room temperature, the sensor was inverted again and immersed into dH2O for bringing up IPA by lateral flow action into sensing area of the strip above the liquid level.
The sensor was then inverted again and immersed into dH2O to bring up IPA by lateral flow action into the sensing area of the strip above the liquid level. The color intensity was determined by analyzing a digital image with the ImageJ software as described above.

[4] = target: T2, acetylcholinesterase (AChE); assay type: biochemical; parameters: purchased Sigma-Aldrich
[5] = target: T2, acetylcholinesterase (AChE); experiment: Ellman colorimetric assay on ink jet printed PVAm/silica/AChE+DTNB/silica paper sensor
Protocol: The performance can be assessed in two ways: a) by direct addition of substrate solution to sensing area, and b) by immersion into the substrate solution. […] However, in the case of direct analyte addition, only small amounts of reagent are needed (5 μL) relative to dipstick sensors (˜2 mL), reducing cost per assay. […] The color intensity of the sensing areas was quantified by obtaining a digital image (Canon A630, 8.0 MegaPixel operated in automatic mode with no flash and with the macroimaging setting on) and using ImageJ™ software to analyze the jpeg images. ImageJ™ software uses a […] color scale and for image processing the images were inverted so that areas that were originally white became black and corresponded to a color intensity of zero and while areas that were originally black became white and corresponded to […]. Based on this scale, increases in the amount of yellow color cause an increase in color intensity of the sensor strips. To account for variations in color intensity owing to differences in environmental illumination, a background subtraction (color intensity of the paper surface closest to the sensing area) was done for each data point.
The intensity was determined by analyzing a digital image with the ImageJ software as described above.

[6] = target: T2, acetylcholinesterase (AChE); assay type: biochemical; parameters: purchased Sigma-Aldrich; conditions: milk and apple juice samples (pH adjusted 7-8)
[7] = target: T2, acetylcholinesterase (AChE); assay type: biochemical; parameters: purchased Sigma-Aldrich; remark: listed apart in the source

T2 sequence (O42275 24-633): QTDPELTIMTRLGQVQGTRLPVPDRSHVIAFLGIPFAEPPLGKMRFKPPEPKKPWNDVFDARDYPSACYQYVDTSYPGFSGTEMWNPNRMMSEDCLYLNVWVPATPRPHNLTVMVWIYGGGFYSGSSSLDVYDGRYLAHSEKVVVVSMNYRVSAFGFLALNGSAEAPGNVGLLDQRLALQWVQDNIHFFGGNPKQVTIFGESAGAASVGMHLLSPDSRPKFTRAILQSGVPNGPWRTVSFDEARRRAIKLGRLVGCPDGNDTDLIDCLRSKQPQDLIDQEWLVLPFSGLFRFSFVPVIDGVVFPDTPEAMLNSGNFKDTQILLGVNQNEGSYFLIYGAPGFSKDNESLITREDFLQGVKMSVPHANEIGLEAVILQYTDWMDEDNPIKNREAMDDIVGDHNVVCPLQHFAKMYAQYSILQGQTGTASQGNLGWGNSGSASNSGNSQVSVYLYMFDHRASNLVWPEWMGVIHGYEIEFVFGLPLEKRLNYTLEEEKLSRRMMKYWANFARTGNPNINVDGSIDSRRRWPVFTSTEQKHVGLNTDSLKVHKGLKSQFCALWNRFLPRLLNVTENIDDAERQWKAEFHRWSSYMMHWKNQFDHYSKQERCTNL
T1 sequence (P05804 whole entry): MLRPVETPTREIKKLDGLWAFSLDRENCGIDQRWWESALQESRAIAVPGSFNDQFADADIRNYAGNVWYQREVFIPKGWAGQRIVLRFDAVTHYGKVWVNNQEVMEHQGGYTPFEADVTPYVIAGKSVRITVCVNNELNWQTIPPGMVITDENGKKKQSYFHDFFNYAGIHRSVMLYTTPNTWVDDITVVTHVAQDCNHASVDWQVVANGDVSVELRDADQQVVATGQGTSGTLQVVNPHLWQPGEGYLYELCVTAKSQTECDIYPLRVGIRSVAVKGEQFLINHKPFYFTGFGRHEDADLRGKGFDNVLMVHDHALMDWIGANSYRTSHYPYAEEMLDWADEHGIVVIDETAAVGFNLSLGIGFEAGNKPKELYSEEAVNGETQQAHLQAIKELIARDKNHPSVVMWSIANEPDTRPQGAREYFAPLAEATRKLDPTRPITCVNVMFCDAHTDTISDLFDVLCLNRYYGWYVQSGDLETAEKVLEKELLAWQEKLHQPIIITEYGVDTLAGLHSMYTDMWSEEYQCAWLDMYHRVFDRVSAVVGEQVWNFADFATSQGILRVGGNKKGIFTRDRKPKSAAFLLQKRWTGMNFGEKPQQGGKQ

## N#CC1=C(C#N)C(=O)C(Cl)=C(Cl)C1=O [DDQ, 2,3-dichloro-5,6-dicyanobenzoquainone]
[1]
  blue color development with oxidizing agent: poorest performance for blue color development

## O.O.O.O.O.O.[Cl-].[Cl-].[Cl-].[Fe+3] [FeCl3, FeCl3. 6H2O]
[1]
  blue color development with oxidizing agent: strongest visual color intensity

## NC1CCCCC1.O=C(O)[C@H]1O[C@@H](Oc2c[nH]c3ccccc23)[C@H](O)[C@@H](O)[C@@H]1O [IBDG, indoxyl-β-D-glucuronide cyclohexylammonium salt]
[1]
  visual color formation via GUS catalyzed hydrolysis: relatively faint color

## CC(=O)Oc1ccc(N=C2C=CC(=O)C=C2)cc1 [IPA, indophenyl acetate]
[2]
  Km: ~700 µM
[3]
  Km: ~1500 µM

## O=C(O)[C@H]1O[C@@H](Oc2ccc([N+](=O)[O-])cc2)[C@H](O)[C@@H](O)[C@@H]1O [PNPG, p-nitrophenyl-β-D-glucuronide]
[1]; in solution for 30 min
  visual color formation via GUS catalyzed hydrolysis: relatively faint color

## CNC(=O)Oc1cccc2c1OC(C)(C)O2 [bendiocarb]
[3]
  IC50: 0.02 µM
  apparent saturated inhibition concentration: around 1 μM
  detection limit (LOD): ca. 10 nM

## CNC(=O)Oc1cccc2ccccc12 [carbaryl]
[3]
  IC50: 0.05 µM
  apparent saturated inhibition concentration: ~5 µM
  detection limit (LOD): ~100 nM

## OCC(O)CO [glycerol]
[4]
  effect of additive on AChE activity in solution: did not produce a decrease in AChE activity

## CCOC(=O)CC(SP(=S)(OC)OC)C(=O)OCC (stereo not shown) [malathion]
[3]
  IC50: ~0.01 µM
  LOD: ca. 10 μM

## CCOP(=O)(OCC)Oc1ccc([N+](=O)[O-])cc1 [paraoxon]
[5]; S/N=3, Ellman paper sensor
  detection limit (LOD): ca. 100 nM
[5]; at 100 nM inhibitor
  inhibition of AChE: ~25%
[3]
  LOD: ca. 10 μM
[6]
  detection limit: ~10 nm
[7]; 1 mM paraoxon sprayed on apple and head lettuce
  inhibition of AChE: ~50%
[7]; 50 mM paraoxon sprayed on apple and head lettuce
  inhibition of AChE: almost complete inhibition

## Triton X-100
[4]
  effect of additive on AChE activity in solution: No significant loss of AChE activity

## aflatoxin B1 [AfB1]
[5]
  detection limit (LOD): ~30 nM
[5]; 0.1 µM
  inhibition of AChE: ~45%
[5]; read-out: IC50 for inhibition of AChE
  IC50: ~0.1 µM
